Data taken from US20260016473A1 (priority 2022, published 2026).

Tests used:
[1] = system: α-amylase, Lactoferrin, Lysozyme, Mucin, EGF, IgA; type: biochemical
[2] = target: T1, SARS-CoV2 Spike S1 (Severe acute respiratory syndrome coronavirus 2, UniProt P0DTC2); type: biochemical, SARS-CoV-2
T1 construct: SARS-CoV2 Spike S1 (Product number: 40591-V08); purchased Sino Biological, Inc. 40591-V08

[3] = target: T2, SARS-CoV2 Spike S2 (Severe acute respiratory syndrome coronavirus 2, UniProt P0DTC2); type: biochemical, SARS-CoV-2
T2 construct: SARS-CoV2 Spike S2 (Product number: 40590-V08H1); purchased Sino Biological, Inc. 40590-V08H1

[4] = system: human serum-derived IgA; type: biochemical
[5] = target: T3, SARS-CoV2 Spike RBD (Severe acute respiratory syndrome coronavirus 2, UniProt P0DTC2); type: biochemical, SARS-CoV-2
T3 construct: purchased Sino Biological, Inc. 40592-V08H

[6] = target: MERS-CoV Spike S1 (Middle East respiratory syndrome-related coronavirus, UniProt K9N5Q8); type: biochemical
Chain of MERS-CoV Spike S1 (K9N5Q8 18-751 limits assumed): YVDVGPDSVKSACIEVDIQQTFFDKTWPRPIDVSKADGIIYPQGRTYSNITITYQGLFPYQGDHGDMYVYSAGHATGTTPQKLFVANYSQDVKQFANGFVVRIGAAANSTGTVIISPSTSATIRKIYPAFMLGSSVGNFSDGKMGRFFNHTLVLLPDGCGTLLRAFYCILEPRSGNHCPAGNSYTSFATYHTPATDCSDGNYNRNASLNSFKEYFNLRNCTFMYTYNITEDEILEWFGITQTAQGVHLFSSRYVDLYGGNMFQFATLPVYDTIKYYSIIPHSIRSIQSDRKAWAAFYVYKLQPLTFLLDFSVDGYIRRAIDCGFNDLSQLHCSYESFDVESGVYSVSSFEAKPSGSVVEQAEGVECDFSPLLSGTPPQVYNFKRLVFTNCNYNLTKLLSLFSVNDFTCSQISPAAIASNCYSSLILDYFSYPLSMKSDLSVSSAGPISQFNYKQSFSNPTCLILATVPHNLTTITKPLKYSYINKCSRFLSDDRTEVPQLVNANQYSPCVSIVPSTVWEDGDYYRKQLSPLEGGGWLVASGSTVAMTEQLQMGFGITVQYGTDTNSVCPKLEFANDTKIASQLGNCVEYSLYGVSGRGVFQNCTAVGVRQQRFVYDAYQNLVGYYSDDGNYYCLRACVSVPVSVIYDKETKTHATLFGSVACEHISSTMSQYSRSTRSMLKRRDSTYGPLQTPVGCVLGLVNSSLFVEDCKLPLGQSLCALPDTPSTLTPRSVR

[7] = target: SARS-CoV Spike S1 (Severe acute respiratory syndrome coronavirus, UniProt P59594); type: biochemical

## CCC(C)c1nc2c(CCCNC(=N)N)[nH]c(-c3c[nH]c4ccccc34)cn-2c1=O (centres unmarked) [Cypridina Luciferin]
[1]
  luminescent reaction with various proteins: did not cause a luminescent reaction
[2]
  luminescent reaction at S1: caused a luminescent reaction
  reaction with spike protein of SARS-CoV-2: reacted
[3]
  luminescent reaction at S2: caused a luminescent reaction
[4]
  luminescent reaction with immunoglobulin protein IgA: did not cause a luminescent reaction
[5]
  luminescent reaction at the RBD domain: did not cause a reaction at the PBD domain at all
[6]
  reaction with the protein of MERS-CoV: did not react
[7]
  reaction with spike protein of SARS-CoV: reacted
